Test results from PMC4278708, “A Convenient Method for the Synthesis of (Prop-2-Ynyloxy)Benzene Derivatives via Reaction with Propargyl Bromide, Their Optimization, Scope and Biological Evaluation” (PLoS ONE, 2014).
In brackets after ≈: the same amount, converted by molar mass. Read-outs that look alike come from different tables or passages of the source.

Tests used:
[1] = molecular target: urease enzyme (Canavalia ensiformis, UniProt P07374); assay: biochemical; type: biochemical; conditions: for inhibition at 50 µg/mL: read-out: Percentage inhibition at 50 ug/mL; for inhibition at 100 µg/mL: read-out: Percentage inhibition at 100 ug/mL
Chain of urease enzyme (P07374 whole entry, looked up): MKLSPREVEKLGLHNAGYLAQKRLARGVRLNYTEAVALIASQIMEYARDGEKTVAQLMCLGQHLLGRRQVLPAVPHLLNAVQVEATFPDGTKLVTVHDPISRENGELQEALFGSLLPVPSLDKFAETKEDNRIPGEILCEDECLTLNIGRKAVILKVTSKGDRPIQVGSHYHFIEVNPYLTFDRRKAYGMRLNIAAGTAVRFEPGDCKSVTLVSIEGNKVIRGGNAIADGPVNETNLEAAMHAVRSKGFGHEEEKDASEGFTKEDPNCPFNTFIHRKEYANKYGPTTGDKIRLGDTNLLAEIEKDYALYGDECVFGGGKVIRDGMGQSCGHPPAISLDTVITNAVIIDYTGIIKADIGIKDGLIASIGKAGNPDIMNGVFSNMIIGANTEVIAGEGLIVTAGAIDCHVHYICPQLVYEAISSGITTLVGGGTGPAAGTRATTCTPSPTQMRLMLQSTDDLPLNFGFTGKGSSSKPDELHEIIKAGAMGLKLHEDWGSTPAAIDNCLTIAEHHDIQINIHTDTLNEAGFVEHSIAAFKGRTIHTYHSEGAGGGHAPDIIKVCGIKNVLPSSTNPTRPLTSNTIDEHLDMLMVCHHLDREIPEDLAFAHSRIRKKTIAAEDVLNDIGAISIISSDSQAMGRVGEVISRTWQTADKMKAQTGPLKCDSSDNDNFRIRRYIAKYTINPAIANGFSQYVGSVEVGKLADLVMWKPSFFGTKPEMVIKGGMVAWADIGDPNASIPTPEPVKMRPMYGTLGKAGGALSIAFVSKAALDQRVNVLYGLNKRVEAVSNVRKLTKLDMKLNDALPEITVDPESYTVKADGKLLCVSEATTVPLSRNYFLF
Protocol: Antiurease activity of the synthesized compounds was determined by using the modified phenol-hypochlorite method. Varying concentrations were used to prepare the urease inhibition curve of Thiourea (a known inhibitor of Urease) in the reaction mixture. Phosphate buffer solution of pH 7 containing 1 unit of enzyme was added about 200 µl in the test tube which was followed by the addition of 230 µl of phosphate buffer and 20 µl of thiourea from a scrupulous stock solution for the particular concentration of thiourea in the reaction mixture respectively. Test sample solutions were added instead of thiourea solution in case of test samples. The reaction mixture were mixed and incubated at 25°C for 5 min. 400 µl of urea stock (20 mM) was added in each test tube. In order to allow the action of urease on urea, all the test tubes were incubated at 40°C.
Phenol hypochlorite reagent (1150 µl) was added after 10 min incubation at 40°C. Test tubes were again incubated at 56°C for 25 min. A blue coloured complex was formed in the reaction mixture. The samples were allowed to cool for 5 min and then their absorbance values were measured at 625 nm and the %age inhibition was calculated. Experiment was repeated three times to get the SD values.

[2] = Nitric oxide (NO) scavenging activity (sodium nitropruside / Griess reagent); conditions: for IC50: NO scavenging; for Percentage scavenging activity at 50 ug/ml / Percentage scavenging activity at 100 ug/ml: NO
Protocol: Solutions of known concentration were prepared by dissolving the synthesized compounds in appropriate solvents. A mixture of sample solution (20 µl), 10 mM sodium nitropruside solution (200 µl) and phosphate buffer of 7.4 pH (1780 µl) was taken in a dry test tube and the mixture was incubated at 37°C for 2 hours. 200 µl Griess reagent (0.3% Sulphanilic acid in glacial acetic acid, 0.1% Naphthyl ethylene diamine HCL (NED): Mixed equal volume of both solutions just before use) was added after the incubation period is over. After 20 min keeping the solution at room temperature, its absorbance at 528 nm was measured. Each sample was analyzed in triplicate. Positive control of any known antioxidant and control of all samples were run in parallel. Use of negative control was to calibrate the instrument. Sample blanks were also prepared in case if the samples were coloured. Correction in the absorbance values was made by subtracting the sample blank reading from the sample reading.

[3] = test system: Bacillus subtillus; assay: Antibacterial activity, disc diffusion method; type: cell-based; conditions: for IC50 / inhibition at 100 µg/mL / inhibition at 50 µg/mL: Bacillus; for inhibition at 100 µg/mL: read-out: Bacillus subtillus 100 ug/ml (percentage inhibition); for inhibition at 50 µg/mL: read-out: Bacillus subtillus 50 ug/ml (percentage inhibition)
Excerpt: (§1) Disc diffusion method was adopted to test the antibacterial activity of synthesized compounds 2a-10 against […] different bacterial strains. Ampiciline was used as positive control to check antibacterial activity of synthesized compounds. The bacterial strains employed were: Escherichia coli, Bacillus subtillus, Shigella flexneri, Staphylococcus aureus, Pseudomonas aeroginosa and Salmonella typhi.
(§2) Disc diffusion method was used for the determination of antibacterial activity. synthetic organic compounds were examined to evaluate their antibacterial potential against four different strains of bacteria i.e. Staphlococcus aureus (Gram + ive), Pseudomonas- aeroginosa (Gram−ive) and Escherichia coli (Gram−ive), Bacillus subtilis (Gram + ive), Salmonella typhi (Gram−ive) and Shigella flexneri (−ive). The synthetic organic compounds were dissolved in an appropriate solvent to get the solution of known concentration (5 µg/µl or 10 µg/µl). In order to prepare discs of different potencies known volume of extract/synthetic organic compound solution was applied on the discs, air dried and used. After preparation of the sterilized nutrient agar and nutrient broth medium, the sterilized nutrient agar medium was poured under aseptic conditions into sterile glass petri dishes/plates. A known volume of bacterial growth culture can also be poured on the surface of agar medium solidified in petri dishes. After inoculation petri plates were kept at room temperature for 15–30 minutes so that the poured medium is adsorbed. All the discs, including test sample, +ive and –ve controls were placed onto the inoculated nutrient agar medium solidified in petri dishes with the help of sterile forceps and incubated the petri plates at 37°C±2°C for 16–24 hours. Zone of inhibition was measured in mm using ordinary scale. Experiment was repeated three times to get the SD values.

[4] = test system: Staphylococcus aureus; assay: Antibacterial activity, disc diffusion method; type: cell-based; conditions: for inhibition at 40 µg/mL / inhibition at 100 µg/mL / IC50: Staphylococcus aureus; for inhibition at 40 µg/mL: read-out: Staphylococcus aureus 40 ug/ml (percentage inhibition); for inhibition at 100 µg/mL: read-out: Staphylococcus aureus 100 ug/ml (percentage inhibition)
Excerpt: as §1, §2

[5] = read-out: Bacillus subtillus IC50 ug/ml
[6] = read-out: Staphylococcus aureus IC50 ug/ml

Row | Molecule | IC50 [1] [µM] | inhibition at 50 µg/mL [1] [%] | inhibition at 100 µg/mL [1] [%] | IC50 [2] [µg/mL] | Percentage scavenging activity at 50 ug/ml [2] [%] | Percentage scavenging activity at 100 ug/ml [2] [%] | inhibition at 40 µg/mL [4] [%] | inhibition at 100 µg/mL [4] [%] | activity against Bacillus subtillus (in words) [3] | IC50 [4, 6] [µg/mL] | inhibition at 50 µg/mL ([3]; 50 ug/ml) [%] | also measured
1 | NC(N)=S [Thiourea, reference compound] | – | – | – | – | – | – | – | – | – | – | – | IC50 ([1]; urease): 23.3 µg/mL; Percentage inhibition at 20 ug/ml ([1]; urease, 20 ug/ml (positive control)): 47.1±0.31%; Percentage inhibition at 40 ug/ml ([1]; urease, 40 ug/ml (positive control)): 65±0.01%
2 | C#CCOc1cccc2ccccc12 [Compound 6a, 1-(prop-2-ynyloxy)naphthalene] | 373 | 41.33 ± 0.41 | 65.3 ± 0.18 | 83 (≈ 455 µM) | 24.33±0.12 | 63.17±0.19 | -1.85 | 10 ± 0.9 | – | – | – | IC50 [3, 5]: 92.6 µg/mL (≈ 508 µM); activity against Staphylococcus aureus (in words) [4]: inactive
3 | C#CCNc1cccc2ccccc12 [Compound 8d, N-(prop-2-ynyl)naphthalen-1-amine] | 506 | 43 ± 0.42 | 51.5 ± 0.26 | – | 7.67±0.13 | 38.38±0.32 | 5.85 ± 0.8 | 31 ± 0.2 | – | – | – | nitric oxide scavenging activity (in words) [2]: did not show any significant results
4 | C#CCOc1ccc(C(C)(C)c2ccc(OCC#C)cc2)cc1 [Compound 4a, 4,4′-(propane-2,2-diyl)bis((prop-2-ynyloxy)benzene)] | 205 | 37 ± 0.34 | 89.42 ± 0.05 | 64.4 (≈ 212 µM) | 40±0.09 | 74.53±0.13 | 29.1 ± 0.6 | 50 ± 0.2 | inactive | 97.7 (≈ 321 µM) | – | inhibition at 100 µg/mL ([3]; 100 ug/ml): 33.9 ± 0.45%; activity against Staphylococcus aureus (in words) [4]: moderate activity
5 | CC1(C)S[C@@H]2[C@H](NC(=O)[C@H](N)c3ccccc3)C(=O)N2[C@H]1C(=O)O [Ampicilline, reference compound] | – | – | – | – | – | – | 29.9 ± 0.59 | 73 ± 0.51 | – | – | 9.9 ± 0.51 | IC50 ([3]; read-out: Bacillus subtillus IC50): 81 µg/mL (≈ 232 µM); IC50 ([4]; read-out: Staphylococcus aureus IC50): 76 µg/mL (≈ 218 µM)
6 | O=C1O[C@H]([C@@H](O)CO)C(O)=C1O [Vit.C control, Ascorbic acid, reference compound] | – | – | – | 50.43 (≈ 286 µM) | 38.5±0.16 | 84.1±0.12 | – | – | – | – | – | –
7 | C#CCOc1ccc(C)cc1Br [Compound 2d, 2-bromo-4-methyl-1-(prop-2-ynyloxy)benzene] | 298 | 30.3 ± 0.6 | 85.89 ± 0.07 | 74.1 (≈ 329 µM) | 31.33±0.10 | 69.95±0.15 | 27.7 ± 0.35 | 52 ± 0.607 | potent antibacterial | 95.9 (≈ 426 µM) | 41.5 ± 0.3 | IC50 [3, 5]: 79.9 µg/mL (≈ 355 µM)
8 | C#CCOc1ccc(Cl)cc1Br [Compound 2b, 2-bromo-4-chloro-1-(prop-2-ynyloxy)benzene] | 264 | 31.5 ± 0.22 | 81.07 ± 0.1 | 67.9 (≈ 277 µM) | 39.67±0.09 | 68.44±0.16 | 31.47 ± 0.19 | 56 ± 0.07 | inactive | 87.7 (≈ 357 µM) | 40.37 ± 0.35 | inhibition at 100 µg/mL ([3]; 100 ug/ml): 39.3 ± 0.36%
9 | 2-bromo-4-methyl-N-(prop-2-ynyl)aniline [Compound 8b] | – | – | – | 87.5 | 26.33±0.11 | 57.98±0.21 | – | – | – | – | – | IC50 ([1]; urease): 98.2 µg/mL; Percentage inhibition at 50 ug/mL ([1]; urease): 27±0.45%; Percentage inhibition at 100 ug/mL ([1]; urease): 50.83±0.265%; Bacillus subtillus 100 ug/ml (percentage inhibition) ([3]; 100 ug/ml): 43.8±0.35%; Staphylococcus aureus 40 ug/ml (percentage inhibition) [4]: 13.39±0.5%; Staphylococcus aureus 100 ug/ml (percentage inhibition) [4]: 36±0.8%
10 | C#CCOc1ccc2ccccc2c1 [Compound 6b, 2-(prop-2-ynyloxy)naphthalene] | – | 32 ± 0.38 | 41.9 ± 0.313 | 76.16 (≈ 418 µM) | 33.33±0.1 | 65.19±0.18 | 21.4 ± 0.4 | 51 ± 0.3 | – | 98.3 (≈ 539 µM) | 39.06 ± 0.05 | urease inhibition activity (in words) ([1]; 50 and 100 µg/ml tested): did not show any satisfactory results; inhibition at 100 µg/mL ([3]; 100 ug/ml): 57.8 ± 0.26%; IC50 [3, 5]: 79.2 µg/mL (≈ 435 µM)
11 | N-(prop-2-ynyl)-4-(prop-2-ynyloxy)aniline [Compound 10] | – | – | – | 78.1 | 30±0.10 | 65.5±0.18 | – | – | batter activity | – | – | IC50 ([1]; urease): 89.6 µg/mL; Percentage inhibition at 50 ug/mL ([1]; urease): 25±0.45%; Percentage inhibition at 100 ug/mL ([1]; urease): 56.5±0.234%; Bacillus subtillus IC50 [3]: 98.5 µg/mL; Bacillus subtillus 50 ug/ml (percentage inhibition) ([3]; 50 ug/ml): 6.13±0.35%; Staphylococcus aureus IC50 [4]: 96.3 µg/mL; activity against Staphylococcus aureus (in words) [4]: moderate activity; Staphylococcus aureus 40 ug/ml (percentage inhibition) [4]: 24.4±0.11%; Staphylococcus aureus 100 ug/ml (percentage inhibition) [4]: 52±0.1%
12 | C#CCOc1ccc(F)cc1Br [Compound 2e, 2-bromo-4-fluoro-1-(prop-2-ynyloxy)benzene] | 271 | 40 ± 0.5 | 79.59 ± 0.11 | 68.8 (≈ 300 µM) | 33.33±0.1 | 77.5±0.11 | 31.99 ± 0.07 | 58 ± 0.9 | inactive | 85.1 (≈ 372 µM) | – | –
